Experimental data reported in the supplement of paper PMC8671470.

Experiments:
Details in all cases: 72 h
[1] = system: LAMA-84; assay: cell viability (% survival relative to DMSO control, bortezomib = 0%); higher = less cytotoxic
Outline: (§1)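 Fifteen myeloid leukaemia cell lines (10 AML, 5 CML) were seeded at a density titrated to the linear growth range. They went into 384-well plates with compounds pre-printed at 1, 10, 100, 1000 or 10000 nM in duplicate. After 72 h at 37 °C with 5% CO2, viability was read by CellTiter-Glo luminescence. Values are percent survival, with vehicle set to 100% and a 10 µM positive control to 0%, averaged over the duplicates.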

[2] = system: THP-1; assay: as above
Outline: as §1

[3] = system: Mono-Mac-6; assay: as above
Outline: as §1

[4] = system: KG-1; assay: as above
Outline: as §1

[5] = system: ML-2; assay: as above
Outline: as §1

[6] = system: MOLM-13; assay: as above
Outline: as §1

[7] = system: SHI-1; assay: as above
Outline: as §1

[8] = system: K-562; assay: as above
Outline: as §1

[9] = system: KCL-22; assay: as above
Outline: as §1

[10] = system: KU-812; assay: as above
Outline: as §1

[11] = system: BV-173; assay: as above
Outline: as §1

[12] = system: NOMO-1; assay: as above
Outline: as §1

[13] = system: MV4-11; assay: as above
Outline: as §1

[14] = system: HEL; assay: as above
Outline: as §1

[15] = system: HL-60; assay: as above
Outline: as §1

[16] = system: NOMO-1
Outline: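 Seeded in RPMI 1640 at densities within the linear growth range, fifteen myeloid leukaemia cell lines were dispensed into 384-well plates with acoustically pre-printed compounds spanning five tenfold doses from 1 to 10,000 nM, in duplicate. The plates were kept for 72 h at 37 °C in 5% CO2 before luminescent ATP viability was measured and normalised to vehicle and to a positive control at 10 µM. Curves were fitted with a four-parameter log-logistic model. The IC50 was taken from those curves.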

[17] = system: HL-60; assay: area under dose-response curve (viability, 1 nM-10 uM) (fraction (0-1)); higher = more sensitive
Outline: (§2)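 In 384-well plates, the full library was rescreened in duplicate on HL-60 cells in RPMI 1640 with 10% FBS, at 1–10,000 nM in five tenfold concentrations, for 72 h at 37 °C, 5% CO2. Each run also held DMSO or 100 nM of one of three metabolic inhibitors. Viability was measured by CellTiter-Glo and normalised to DMSO wells and to wells with proteasome inhibitor, present at 10 μM. Any area under the curve comes from four-parameter log-logistic fitting with drc and PharmacoGx.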

[18] = system: HL-60; assay: cell viability (% survival relative to DMSO control); higher = less cytotoxic
Outline: as §2

O=C(c1c2ccccc2cc2ccccc12)N1CCC(N2CCC[C@@H](C(=O)N3CCOCC3)C2)CC1
Details	area under dose-response curve, co-treatment: AZD3965 100 nM	area under dose-response curve, co-treatment: DMSO vehicle	area under dose-response curve, co-treatment: GSK2194069 100 nM	area under dose-response curve, co-treatment: pictilisib 100 nM	cell viability, 1 nM [%]	cell viability, 10 nM [%]	cell viability, 100 nM [%]	cell viability, 1000 nM [%]	cell viability, 10000 nM [%]
[1]	–	–	–	–	109	108	105	94.5	86.5
[2]	–	–	–	–	106	96.6	115	94.9	100
[3]	–	–	–	–	101	109	93.4	89.1	75.8
[4]	–	–	–	–	110	102	111	94	85.6
[5]	–	–	–	–	126	118	119	98.5	86.4
[6]	–	–	–	–	122	103	109	62.4	53.7
[7]	–	–	–	–	110	96.3	107	101	90
[8]	–	–	–	–	112	106	119	94.9	75.7
[9]	–	–	–	–	107	108	118	99.6	78.3
[10]	–	–	–	–	100	108	103	95.3	96
[11]	–	–	–	–	111	108	118	86.5	70.9
[12]	–	–	–	–	106	108	104	99.6	95.2
[13]	–	–	–	–	133	110	97.3	78.8	62.3
[14]	–	–	–	–	106	108	110	77.3	94.7
[15]	–	–	–	–	104	69.9	118	59.2	41.5
[17]	< 0.0301	< 0.0301	< 0.0301	< 0.0301	–	–	–	–	–

Details	IC50 (cell viability) [µM]
[16]	> 10

cell viability [%], [18]
Details	0.001 µM	0.01 µM	0.1 µM	1 µM	10 µM
co-treatment: AZD3965 100 nM	93.6	96.9	102	101	83.4
co-treatment: DMSO vehicle	103	100	105.5	101	94.5
co-treatment: GSK2194069 100 nM	92.4	95.1	98.29	122	95.7
co-treatment: pictilisib 100 nM	93.4	100	103	98.8	78.8

OCCN(CCO)c1nc(N2CCCCC2)c2nc(N(CCO)CCO)nc(N3CCCCC3)c2n1 [Dipyridamole]
Details	area under dose-response curve, co-treatment: AZD3965 100 nM	area under dose-response curve, co-treatment: DMSO vehicle	area under dose-response curve, co-treatment: pictilisib 100 nM	cell viability, 1 nM [%]	cell viability, 10 nM [%]	cell viability, 100 nM [%]	cell viability, 1000 nM [%]	cell viability, 10000 nM [%]
[1]	–	–	–	97.9	99.6	108	90.3	83.7
[2]	–	–	–	96.6	100	107	90.8	81.5
[3]	–	–	–	98	103	98.5	97.1	77.4
[4]	–	–	–	94.7	112	101	104	90.2
[5]	–	–	–	93.4	104	123	103	66.4
[6]	–	–	–	116	117	97.5	83.5	97.8
[7]	–	–	–	104	113	110	92.2	80.9
[8]	–	–	–	108	89.5	105	85.6	67
[9]	–	–	–	114	95.3	98.9	106	65
[10]	–	–	–	87.9	98.7	90.7	86.5	69.4
[11]	–	–	–	90.4	98.2	92.4	78.6	38.8
[12]	–	–	–	98	101	107	92.3	81.9
[13]	–	–	–	95.8	95	101	94.4	43.5
[14]	–	–	–	87.6	101	102	105	77.7
[15]	–	–	–	129	65.2	105	61.6	93.8
[17]	< 0.0301	< 0.0301	< 0.0301	–	–	–	–	–

Details	IC50 (cell viability) [µM]
[16]	> 10

cell viability [%], [18]
Details	0.001 µM	0.01 µM	0.1 µM	1 µM	10 µM
co-treatment: AZD3965 100 nM	95.7	98.9	100.7	102	106
co-treatment: DMSO vehicle	101	97.54	107	100	106
co-treatment: GSK2194069 100 nM	94.2	94.44	106	82	64
co-treatment: pictilisib 100 nM	90.6	101	105.3	99.7	97.4
